The values that follow come from patent US9102701B2, “17-hydroxy-17-pentafluoroethyl-estra-4,9(10)-diene-11-ethynylphenyl derivatives, methods for the production thereof and use thereof for treating diseases” (Bayer Intellectual Property GmbH, priority 2009, dated 2015).

pIC50: −log10 of the molar value. Values after ≈ are worked out from the molar mass of the structure shown.

Broadly, the pIC50 is the IC50 on a negative log10 scale, so that one unit is a factor of ten. One may read the solubility as the dissolved amount per volume that the medium holds.

Data set [1] addresses T1, human progesterone receptor A (Homo sapiens, UniProt P06401).
T1 construct: expressed in transfected cells; host or cells: SK-N-MC human neuroblastoma cells, stably transfected with pRChPR-A-neo and pMMTV-LUC
T1 sequence (P06401 1-769 isoform P06401-2): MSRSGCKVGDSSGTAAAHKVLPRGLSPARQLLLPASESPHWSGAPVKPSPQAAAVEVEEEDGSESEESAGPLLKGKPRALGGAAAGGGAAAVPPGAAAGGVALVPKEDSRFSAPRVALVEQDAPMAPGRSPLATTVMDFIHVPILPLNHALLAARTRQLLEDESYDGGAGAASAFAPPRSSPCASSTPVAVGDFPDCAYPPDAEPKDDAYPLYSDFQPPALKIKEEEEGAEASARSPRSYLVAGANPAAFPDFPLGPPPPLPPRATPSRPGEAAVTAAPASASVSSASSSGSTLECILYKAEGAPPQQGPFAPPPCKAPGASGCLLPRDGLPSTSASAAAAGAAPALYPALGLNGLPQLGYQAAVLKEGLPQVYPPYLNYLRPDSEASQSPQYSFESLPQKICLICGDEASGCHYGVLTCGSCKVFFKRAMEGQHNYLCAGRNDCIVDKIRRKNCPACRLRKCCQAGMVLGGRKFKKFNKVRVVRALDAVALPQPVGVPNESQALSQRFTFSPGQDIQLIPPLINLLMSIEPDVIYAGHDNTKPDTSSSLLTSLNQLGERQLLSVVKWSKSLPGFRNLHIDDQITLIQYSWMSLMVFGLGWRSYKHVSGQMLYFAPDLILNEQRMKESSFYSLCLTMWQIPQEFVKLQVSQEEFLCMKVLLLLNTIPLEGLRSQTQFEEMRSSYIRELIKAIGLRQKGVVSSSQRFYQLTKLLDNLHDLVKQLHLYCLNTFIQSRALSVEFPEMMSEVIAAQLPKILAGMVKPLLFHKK
Put plainly: Progesterone receptor-antagonistic action in stably transfected SK-N-MC cells, PR-A, MMTV-LUC reporter. The class given is cell-based. Conditions: read-out: IC50 PR-A. In short, it runs like this: (§1)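 SK-N-MC neuroblastoma cells stably expressing human PR-A or PR-B plus MMTV-LUC reporter, treated 24 h with compound (0.01 nmol/l upward). Antagonism measured against 0.1 nmol/l promegestone; luciferase in lysates as RLU, given as % efficacy and IC50 (agonism as EC50).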

For data set [2], the target named is T2, human progesterone receptor B (Homo sapiens, UniProt P06401).
T2 construct: expressed in transfected cells; host or cells: SK-N-MC human neuroblastoma cells, stably transfected with pRChPR-B-neo and pMMTV-LUC
T2 sequence (P06401 1-933): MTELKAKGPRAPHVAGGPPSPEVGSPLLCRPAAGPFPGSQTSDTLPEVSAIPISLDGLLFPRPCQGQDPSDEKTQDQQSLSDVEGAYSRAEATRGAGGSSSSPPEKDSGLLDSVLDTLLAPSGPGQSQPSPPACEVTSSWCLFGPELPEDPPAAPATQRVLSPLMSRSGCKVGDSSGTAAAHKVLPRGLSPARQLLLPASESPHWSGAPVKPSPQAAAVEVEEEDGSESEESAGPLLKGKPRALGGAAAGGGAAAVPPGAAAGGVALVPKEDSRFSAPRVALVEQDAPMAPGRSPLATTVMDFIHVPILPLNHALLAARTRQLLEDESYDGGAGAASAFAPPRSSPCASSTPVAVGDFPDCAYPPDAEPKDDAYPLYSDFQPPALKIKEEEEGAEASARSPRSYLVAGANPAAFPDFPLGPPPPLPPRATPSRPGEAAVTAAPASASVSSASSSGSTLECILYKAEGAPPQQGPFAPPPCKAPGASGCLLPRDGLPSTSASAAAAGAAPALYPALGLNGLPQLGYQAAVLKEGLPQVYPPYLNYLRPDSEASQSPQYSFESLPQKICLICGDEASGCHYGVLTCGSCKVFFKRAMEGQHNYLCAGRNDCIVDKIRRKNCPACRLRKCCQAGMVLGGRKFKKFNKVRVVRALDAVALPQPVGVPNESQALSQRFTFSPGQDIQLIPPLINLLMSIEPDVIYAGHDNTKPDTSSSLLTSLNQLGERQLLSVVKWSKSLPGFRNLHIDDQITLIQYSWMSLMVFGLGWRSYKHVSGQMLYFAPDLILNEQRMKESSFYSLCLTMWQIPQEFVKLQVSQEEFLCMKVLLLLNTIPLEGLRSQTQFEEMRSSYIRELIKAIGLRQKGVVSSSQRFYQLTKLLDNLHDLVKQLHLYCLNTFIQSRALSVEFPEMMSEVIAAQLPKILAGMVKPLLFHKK
The data set can be described thus: Progesterone receptor-antagonistic action in stably transfected SK-N-MC cells, PR-B, MMTV-LUC reporter. The class given is cell-based. The settings on record: read-out: IC50 PR-B. In short, it runs like this:
as §1

Data set [3] can be described thus: Metabolic stability in human liver microsomes. The class given is in vitro ADME. Conditions: for Predicted clearance Human: predicted in vivo clearance from liver microsomes, well-stirred model, 1 μM. Here is the method:
(§2) Determination of Metabolic Stability in Human and Rat Liver Microsomes
Isolated Human Liver Microsomes (HLM) were Used to Assess the Metabolic Stability of compounds of general formula I.
(§3) The incubations were conducted with 2.4 ml of HLM solution (protein content 0.5 mg/ml), 30 μl of the test compound (final concentration 1 μM) and 0.6 ml of the cofactor mixture (═NADPH-generating system composed of 3 IU glucose-6-phosphate dehydrogenase, 14.6 mg glucose-6-phosphate, 1.2 mg NADP) at 37° C. in 100 mM phosphate buffer at pH 7.4. Samples were taken at 6 time points (2-60 min) and precipitated with an equal volume of methanol, and the recovery of the test substances used in the supernatant was determined by LC-MS/MS analysis. The half-life of substance degradation determined therefrom was used to calculate what is called the intrinsic clearance of the substance in the liver microsome preparation.

Data set [4] is described as follows: Solubility in aqueous medium at pH 7.4. The class given is physicochemical. Conditions: for solubility: aqueous medium, pH 7.4, aqueous buffer.
Data set [5] in a line: Clearance and half-life after intravenous administration in rats. It is filed as in vivo. Conditions: i.v. bolus 0.3-0.5 mg/kg; for CLblood: female rats.
Protocol: Determination of Clearance and of Half-Life after Intravenous Administration in Rats
The determination of the in vivo clearance and half-life of test substances was conducted in female rats with a body weight of approx. 200-250 g. For this purpose, the test substances (in a cassette test up to 3 different substances per animal) were administered intravenously (i.v.) into the tail vein in dissolved form at a dose of 0.3-0.5 mg/kg as a bolus in a volume of 2 ml/kg, using compatible solubilizers such as PEG400 and/or ethanol in a compatible amount. A polyurethane catheter in the jugular vein was used to take approx. 0.2 ml blood samples at the time points of 2 min, 8 min, 15 min, 30 min, 45 min, 1 h, 2 h, 4 h, 6 h, 8 h, 24 h. The blood samples were stored without shaking in lithium heparin tubes (Monovettes® from Sarstedt) and centrifuged at 3000 rpm for 15 min. An aliquot of 100 μl was taken from the supernatant (plasma) and precipitated by adding 400 μl of cold methanol. The precipitated samples were frozen at −20° C. overnight, then centrifuged again at 3000 rpm for 15 min, before 150 μl of the clear supernatant were removed to determine the concentration. The analysis was effected by means of an Agilent 1200 HPLC system with connected LC-MS/MS detection.
Calculation of the PK Parameters (Via Nonlinear Regression by PK Calculation Software):
CLplasma: total plasma clearance of the test substance (in l*kg/h),
where CLplasma=dose/AUCinf;
AUCinf: extrapolated area under the plasma concentration-time curve (in μg*h/l);
CLblood: total blood clearance of the test substance (in l*kg/h), where (CLblood=CLplasma*Cp/Cb);
Cb/Cp: ratio of the blood to plasma concentration distribution of the test substance;
T½: terminal half-life of the test substance (in h).
The test system of the next data set is pregnant rats. The data set can be described thus: Abortion test on female rats. It is filed as in vivo. Conditions: d5-d7 p.c., autopsy d9 p.c. Here is the method: Abortion Test on Female Rats
The action of progesterone and of the progesterone receptor is a fundamental precondition for successful pregnancy or gestation in mammals. The progesterone-antagonistic action of the inventive compounds was tested on pregnant rats (6 rats per group) on days 5 to 7 post coitum under conventional housing and feeding conditions.
After successful mating, the pregnant animals (presence of sperm in the vaginal smear on day 1 of pregnancy=d1 p.c.) were randomized and divided into the treatment group and the control group. The animals then each received subcutaneously or orally 0.15; 0.5; 1.5 or 5 mg/kg of the test compound or 1.0 ml/kg of vehicle (benzyl benzoate/castor oil: 1+4 [v/v]) daily from day 5 to day 7 (d5−d7 p.c.).
Autopsy was conducted on day 9 (d9 p.c.). As a characteristic of progesterone receptor-antagonistic action, the uterus was examined for the presence of nidation sites. Complete absence, or else the presence of pathological, haemorrhagic or otherwise abnormal nidation sites, on day 9 (d9 p.c.) was considered as abortion.

Data set [6] is described as follows: Metabolic stability in rat liver microsomes. It is filed as in vitro ADME. Here is the method:
as §2, §3
In general terms: Microsomes from liver hold many membrane-bound enzymes, among them those of drug oxidation.

`C[C@]12C[C@H](c3ccc(C#Cc4ccc(C(=O)O)cc4)cc3)C3=C4CCC(=O)C=C4CC[C@H]3[C@@H]1CC[C@@]2(O)C(F)(F)C(F)(F)F` [Example 16, 4-[4-((8S,11R,13S,14S,17S)-17-hydroxy-13-methyl-3-oxo-17-pentafluoroethyl-2,3,6,7,8,11,12,13,14,15,16,17-dodecahydro-1H-cyclopenta[a]phenanthren-11-yl)phenylethynyl]benzoic acid]: the pIC50 in data set [1] is 10.00; in data set [2], 10.30. Also, the “Predicted clearance Human” value in data set [3] was 5.5 mL/min/kg. Further, the “solubility (in words)” value in data set [4] (aqueous medium under physiological conditions) is on record as “improved solubility”. This compound displayed a solubility in data set [4] of 204 µg/mL (≈ 334 µM). Moreover, the CLblood in data set [5] was found to be 35 ± 8.3 mL/min/kg. Moreover, the Abortion rate in the data set on pregnant rats (daily dose 0.5 mg/kg p.o.) was determined as 0%; in the data set on pregnant rats (daily dose 1.5 mg/kg p.o.) it was 16.7%; with pregnant rats (daily dose 5.0 mg/kg p.o.) it was 100%.
For `C[C@]12C[C@H](c3ccc(C#CCO)cc3)C3=C4CCC(=O)C=C4CC[C@H]3[C@@H]1CC[C@@]2(O)C(F)(F)C(F)(F)F` [Example 1, (8S,11R,13S,14S,17S)-17-hydroxy-11-[4-(3-hydroxyprop-1-yn-1-yl)phenyl]-13-methyl-17-pentafluoroethyl-1,2,6,7,8,11,12,13,14,15,16,17-dodecahydrocyclopenta[a]phenanthren-3-one], the figures for the pIC50 in data set [1] and in data set [2] were 10.01 and 9.96, respectively. Moreover, the “Predicted clearance Human” value in data set [3] is 5.33 mL/min/kg. The solubility in data set [4] stood at 13 µg/mL (≈ 25 µM). Also, the Abortion rate in the data set on pregnant rats (daily dose 0.5 mg/kg p.o.), with pregnant rats (daily dose 1.5 mg/kg p.o.) and with pregnant rats (daily dose 5.0 mg/kg p.o.) was 100% in each case.
Regarding `C[C@]12C[C@H](c3ccc(C#C/C=C/C#N)cc3)C3=C4CCC(=O)C=C4CCC3C1CC[C@@]2(O)C(F)(F)C(F)(F)F` (stereo partly drawn) [Example 4, (E)-5-[4-((8S,11R,13S,14S,17S)-17-hydroxy-13-methyl-3-oxo-17-pentafluoroethyl-2,3,6,7,8,11,12,13,14,15,16,17-dodecahydro-1H-cyclopenta[a]phenanthren-1′-yl)phenyl]pent-2-en-4-ynenitrile], the negative logarithm of the IC50 (pIC50) in data set [1] was 9.70; in data set [2], 10.00. The “Predicted clearance Human” value in data set [3] was 1.5 mL/min/kg. The compound also returned a solubility in data set [4] of 8 µg/mL (≈ 14.8 µM). For the same compound, the CLblood in data set [5] came out at 55 ± 21.7 mL/min/kg. In addition, the half-life in data set [5] (female, rat, plasma, iv, read-out: t1/2 (terminal half-life)) was not below 1 h.
For `C[C@]12C[C@H](c3ccc(CO)cc3)C3=C4CCC(=O)C=C4CC[C@H]3[C@@H]1CC[C@@]2(O)C(F)(F)C(F)(F)F` [Ref. 1*, (8S,11R,13S,14S,17S)-17-hydroxy-11-[4-(hydroxymethyl)phenyl]-13-methyl-17-pentafluoroethyl-1,2,6,7,8,11,12,13,14,15,16,17-dodecahydrocyclopenta[a]phenanthren-3-one, reference compound], the results for the pIC50 in data set [1] and in data set [2] were 9.40 and 9.52, respectively. The “Predicted Fmax (maximum oral bioavailability) Human” value in data set [3] (calculated from liver microsome data) is on record as 42%. Also, in data set [3], the “Predicted clearance Human” value is 12 mL/min/kg. Moreover, the “predicted maximum bioavailability in rats (in words)” value in data set [6] is reported as “good”. In data set [4], this compound returned a solubility of 17 µg/mL (≈ 34.2 µM).
